Organism: Rattus norvegicus
Assay: Open TG-GATES - Regimen: Single
Format: toxicity, organism-based, Sprague-Dawley
Parameters: regimen Single, gender Male, age 6 weeks
Conditions: in vivo, po, 0 mg/kg, route gavage, dose level Control; for KIDNEY_L / KIDNEY_R / KIDNEY_TOTAL: tissue Kidney; for LIVER: tissue Liver; for ALP / ALT / AST / BUN / CRE / Ca / DBIL / GLC / IP / K / LDH / Na / PL / RALB / TBIL / TC / TP / gamma-GTP / TG: tissue Plasma

## O=C(O)c1cn(C2CC2)c2cc(N3CCNCC3)c(F)cc2c1=O [CIPROFLOXACIN]
3 h
  TERMINAL_BW: 180.9 g
  KIDNEY_L: 0.8 g
  KIDNEY_R: 0.9 g
  KIDNEY_TOTAL: 1.7 g
  LIVER: 8.3 g
  ALP: 1050.6 IU/L
  ALT: 38.4 IU/L
  AST: 70.6 IU/L
  BUN: 13.8 mg/dL
  CRE: 0.4 mg/dL
  Ca: 10.8 mg/dL
  DBIL: 0.008 mg/dL
  GLC: 186.6 mg/dL
  IP: 9.5 mg/dL
  K: 4.9 meq/L
  LDH: 92.6 IU/L
  Na: 138.2 meq/L
  PL: 130.8 mg/dL
  RALB: 3.8 g/dL
  TBIL: 0.4 mg/dL
  TC: 73.6 mg/dL
  TP: 5.4 g/dL
  gamma-GTP: 1.8 IU/L
3 h, tissue Blood
  Bas: 0%
  Eos: 0.6%
  Fbg: 202.2 mg/dL
  Hb: 13 g/dL
  MCH: 21.8 pg
  MCV: 65.5 fL
  Mono: 6%
  PT: 12.5 s
  Plat: 103.5 x10_4/uL
  RBC: 598.8 x10_4/ul
  Ret: 9.9%
  WBC: 128.2 x10_2/uL
6 h
  TERMINAL_BW: 182.4 g
  KIDNEY_L: 0.9 g
  KIDNEY_R: 0.9 g
  KIDNEY_TOTAL: 1.8 g
  LIVER: 8.5 g
  ALP: 839.4 IU/L
  ALT: 36.6 IU/L
  BUN: 10.4 mg/dL
  CRE: 0.5 mg/dL
  DBIL: 0.024 mg/dL
  GLC: 186.4 mg/dL
  IP: 9.9 mg/dL
  K: 5.1 meq/L
  LDH: 103.2 IU/L
  Na: 138.2 meq/L
  PL: 136 mg/dL
  RALB: 3.7 g/dL
  TBIL: 0.4 mg/dL
  TC: 80.6 mg/dL
  TG: 42.2 mg/dL
  TP: 5.5 g/dL
  gamma-GTP: 1.4 IU/L
6 h, tissue Blood
  Bas: 0%
  Eos: 0.6%
  Fbg: 211 mg/dL
  Hb: 12.6 g/dL
  Lym: 77%
  MCH: 21.8 pg
  MCV: 66.3 fL
  Mono: 6.8%
  Neu: 15.6%
  PT: 12.5 s
  Plat: 103 x10_4/uL
  RBC: 579 x10_4/ul
  Ret: 10.8%
  WBC: 125 x10_2/uL
9 h
  TERMINAL_BW: 177.8 g
  KIDNEY_L: 0.8 g
  KIDNEY_R: 0.8 g
  KIDNEY_TOTAL: 1.7 g
  LIVER: 7.5 g
  ALP: 766 IU/L
  ALT: 32.4 IU/L
  AST: 68.4 IU/L
  BUN: 10.6 mg/dL
  CRE: 0.5 mg/dL
  Ca: 10.9 mg/dL
  DBIL: 0.056 mg/dL
  GLC: 193 mg/dL
  IP: 10.9 mg/dL
  K: 4.9 meq/L
  LDH: 92.4 IU/L
  Na: 139.2 meq/L
  PL: 120.4 mg/dL
  RALB: 3.8 g/dL
  TBIL: 0.3 mg/dL
  TC: 71.8 mg/dL
  TG: 29 mg/dL
  TP: 5.5 g/dL
  gamma-GTP: 1.4 IU/L
9 h, tissue Blood
  APTT: 17 s
  Bas: 0%
  Eos: 0.4%
  Fbg: 213.4 mg/dL
  Hb: 12.4 g/dL
  Ht: 37.5%
  Lym: 82.6%
  MCH: 21.7 pg
  MCHC: 33.1%
  MCV: 65.6 fL
  Mono: 6.8%
  Neu: 10%
  PT: 11.7 s
  Plat: 116.2 x10_4/uL
  RBC: 572.4 x10_4/ul
  Ret: 10.6%
  WBC: 115.5 x10_2/uL
24 h
  TERMINAL_BW: 194.5 g
  KIDNEY_L: 0.9 g
  KIDNEY_R: 0.9 g
  KIDNEY_TOTAL: 1.8 g
  LIVER: 9.8 g
  ALP: 1038.8 IU/L
  ALT: 47 IU/L
  AST: 74.8 IU/L
  BUN: 17.4 mg/dL
  CRE: 0.5 mg/dL
  Ca: 11.3 mg/dL
  DBIL: 0.074 mg/dL
  GLC: 187.2 mg/dL
  IP: 8.3 mg/dL
  K: 4.7 meq/L
  LDH: 96.8 IU/L
  Na: 138.8 meq/L
  PL: 157.2 mg/dL
  RALB: 4 g/dL
  TBIL: 0.3 mg/dL
  TC: 89 mg/dL
  TG: 89.4 mg/dL
  TP: 5.7 g/dL
  gamma-GTP: 1.2 IU/L
24 h, tissue Blood
  APTT: 16.4 s
  Bas: 0%
  Eos: 1%
  Fbg: 209.2 mg/dL
  Hb: 13.1 g/dL
  Lym: 80%
  MCH: 22 pg
  MCHC: 33.4%
  MCV: 65.8 fL
  Mono: 7.2%
  Plat: 103.8 x10_4/uL
  RBC: 598.2 x10_4/ul
  Ret: 9.7%
  WBC: 132.8 x10_2/uL
